Experimental data reported in publication PMC10845954, “Novel antimicrobial peptides identified in legume plant, Medicago truncatula” (Microbiology Spectrum, 2024).
≈ marks a conversion by molar mass, not a printed value. Where a SMILES comes first, the peptide text is derived from it. Where no end group is shown, it is not given here.

Legend:
human erythrocytes = assay: Human red blood cell hemolysis; format: cell-based; conditions: 100 µM
Protocol: With a few minor modifications, red blood cell hemolysis was carried out as previously described ([21]). On a 96-well microtiter plate, 100, 10, 1, and 0 µM NCRs, NCR094 and NCR992 were placed in each well, and […] of 1× PBS was carried out across the plate. Each well received an equivalent volume of 1% human erythrocytes that had been re-suspended in PBS after being washed once with PBS (5 minutes by centrifugation at 3,000 × g to prevent non-specific red blood cell lysis). The plate was then incubated at 37°C for 24 hrs.
As negative and positive controls for hemolysis, respectively, PBS alone and 1% sodium hypochlorite alone were utilized. At a wavelength of 405 nm, hemoglobin release was measured, and the hemolytic capability was expressed as a percentage of the sodium hypochlorite control (100%). The normalization equation normalization = NCR average – negative control average was used to compute the hemolysis percentage. Hemolysis percentage = normalization of NCRs ÷ average of positive control × 100. The hemolysis of 20% and above was considered as toxic to human red blood cells as reported previously ([22]). The mean values and standard deviation (SD) for each assay were carried out in triplicate and repeated three times.
Fig 6 The hemolysis % of the NCRs (NCR094 and NCR992) toward human red blood cells. One percent human red blood cells were treated with 100 µM of the NCRs. (A) NCR094 WT, NCR094.1, NCR094.2, and NCR094.3. (B) NCR992 WT, NCR992.1, NCR992.2, and NCR992 for 16 hrs without shaking. One hundred […] of supernatants was transferred into a new 96-well plate, and the absorbance was measured using a plate reader at 405 nm wavelength. Polymyxin B treatment was […] control. The results were represented as average of the % hemolysis and standard deviations from three independent experiments.
Figure S.1. Dose-dependent hemolysis assay for the NCR collection used in this study.
1% Human red blood cells were treated with 10-fold concentration (100, 10, 1, 0 μM) of NCRs A) (NCR094.1, B)
NCR992 WT) C) NCR992.1, D) NCR992.2, and E) NCR992.1for 18 hrs without shaking. […] of supernatants
were transferred into new 96-well plate and the absorbance was measured using a plate reader at 405 nm wavelength.
The results were represented as average of the % hemolysis and error bars were ± SD values from three independent
(also on this page, place not known: 10100 % of Toxicity 10100 80% of Toxicity 10100 % of Toxicity 10100 % of Toxicity 10100 S- % of Toxicity A)

K. pneumoniae ATCC700603 [1] = format: cell-based, Klebsiella pneumoniae
Protocol: (§1) Bacterial strains used in the experiment were MRSA ATCC29213 and K. pneumoniae ATCC700603. Three NCRs, NCR094 (GenBank# KEH42094.1), NCR992 (GenBank# KEH8992.1), and NCR888 (GenBank# KEH37888.1), and designed derivatives were supplied from GenScript (United States). MRSA and K. pneumoniae were streaked for colonies on blood agar plates and incubated at 37°C for 18–24 hrs. MRSA and K. pneumoniae’s colonies were cultured in cation-adjusted Mueller–Hinton broth (MHB) media and incubated at 37°C for 18–24 hrs. For the in vitro killing assay and the ex vivo human killing assay, MRSA and K. pneumoniae were cultured on an MHB agar plate for 18 hrs at 37°C.
(§2) A broth microdilution assay in cation-adjusted MHB (MilliporeSigma, United States) was used to determine the minimum inhibitory concentrations (MICs) and the mimium bactericidal concentration (MBCs) of our NCR collection’s NCR094, NCR888, and NCR992. After a final bacterial inoculum of 5 × 10^5 CFU/mL was set and incubated for an overnight period at 37°C, the MIC of the NCRs that prevented MRSA or K. pneumoniae from growing visibly was measured. The MBCs was measured by subculturing the broths used in MIC determination into fresh NCR-free agar plates. The MICs of the NCRs were measured after the NCRs were added to the MRSA or K. pneumoniae cultures and dissolved in sterile distilled water.
The bacterial cultures of MRSA and K. pneumoniae were treated with different concentrations of the synthetic NCRs (MRSA: 25, 12.5, 6.25, 3.125, and 0 µM; K. pneumoniae: 50, 25, 12.5, 6.25, 3.125, and 0 µM). […] Thus, NCR888 in the wild type and the different variants were not included in the downstream assays.

MRSA ATCC29213 = assay: Broth microdilution MIC/MBC; format: cell-based, Staphylococcus aureus; conditions: tested 25, 12.5, 6.25, 3.125 µM; post-18 hrs of treatment
Protocol: as §1
as §2, with “water. […]” for “water.”

K. pneumoniae ATCC700603 [2] = format: cell-based, Klebsiella pneumoniae; conditions: human whole blood, 12.5 µM, 18 hrs 37°C; mean of three independent experiments
Protocol: The whole killing assay was performed as previously described ([19]). Briefly, freshly drawn peripheral venous whole blood was collected on a heparin tube from healthy adult volunteers. To do this, unchallenged blood with and without NCRs at the MIC (blood from the same individuals) was used. Whole blood was then challenged with MRSA or K. pneumoniae ex vivo and incubated for an overnight period at 37°C. Tenfold serial dilution was plated on MH agar media post-18 hrs treatment ([19]). Killing% was calculated as follows: killing% = CFUs for no treatment − CFUs for NCR treatment ÷ […] × 100. Three independent experiments were performed.
The killing effect of NCRs on MRSA and K. pneumoniae was investigated using an ex vivo whole blood killing assay as a preliminary screening method to discover peptides with potential immune-boosting activity. […] The bactericidal ability (killing%) of human whole blood was monitored by counting the CFUs post-18 hrs, and the killing% was calculated.
Fig 2 Whole blood killing assay of NCR094 in the wild type and the derivatives, ex vivo antimicrobial assay. […] CFUs were calculated to estimate the killing percentage. […]
Fig 4 Whole blood killing assay of NCR992 in the wild type and the derivatives, the ex vivo antimicrobial assay. […] CFUs were calculated to estimate the killing percentage. […]

| Molecule | hemolysis % (human erythrocytes) [%] | also measured |
| --- | --- | --- |
| CC(C)C[C@H](NC(=O)[C@@H](N)Cc1ccc(O)cc1)C(=O)N[C@@H](CCCCN)C(=O)N[C@@H](CS)C(=O)N[C@@H](CCCCN)C(=O)N[C@H](C(=O)N[C@H](C(=O)N[C@@H](Cc1c[nH]cn1)C(=O)N[C@@H](CC(=O)O)C(=O)N[C@@H](CS)C(=O)N1CCC[C@H]1C(=O)N[C@@H](CCCCN)C(=O)O)C(C)C)[C@@H](C)O [NCR094.1] (H-YLKCKTVHDCPK-OH; N-terminus and C-terminus assumed) | 49.38 |  |
| CC[C@H](C)[C@H](NC(=O)[C@H](CCCCN)NC(=O)[C@@H](NC(=O)[C@H](C)NC(=O)[C@H](CCCNC(=N)N)NC(=O)[C@H](CS)NC(=O)[C@H](Cc1ccc(O)cc1)NC(=O)[C@H](CC(N)=O)NC(=O)CNC(=O)[C@@H](NC(=O)[C@H](CS)NC(=O)[C@H](CCCNC(=N)N)NC(=O)[C@H](Cc1ccc(O)cc1)NC(=O)[C@@H](NC(=O)[C@@H](NC(=O)[C@@H](N)CCC(N)=O)C(C)C)C(C)C)C(C)C)C(C)C)C(=O)N[C@@H](CCCNC(=N)N)C(=O)N[C@@H](CCCNC(=N)N)C(=O)N[C@@H](Cc1c[nH]c2ccccc12)C(=O)N[C@@H](CC(N)=O)C(=O)N[C@@H](CC(C)C)C(=O)NCC(=O)O [NCR094.2] (H-QVVYRCVGNYCRAVKIRRWNLG-OH; N-terminus and C-terminus assumed) | 8.99 |  |
| CC[C@H](C)[C@H](NC(=O)[C@H](CCCCN)NC(=O)[C@@H](NC(=O)[C@H](C)NC(=O)[C@H](CCCNC(=N)N)NC(=O)[C@H](CS)NC(=O)[C@H](Cc1ccc(O)cc1)NC(=O)[C@H](CC(N)=O)NC(=O)CNC(=O)[C@@H](NC(=O)[C@H](CS)NC(=O)[C@H](CCCNC(=N)N)NC(=O)[C@H](Cc1ccc(O)cc1)NC(=O)[C@@H](NC(=O)[C@@H](NC(=O)[C@H](CCC(N)=O)NC(=O)[C@H](CO)NC(=O)[C@H](CCCCN)NC(=O)[C@@H]1CCCN1C(=O)[C@H](CS)NC(=O)[C@H](CC(=O)O)NC(=O)[C@H](Cc1c[nH]cn1)NC(=O)[C@@H](NC(=O)[C@@H](NC(=O)[C@H](CCCCN)NC(=O)[C@H](CS)NC(=O)[C@H](CCCCN)NC(=O)[C@H](CC(C)C)NC(=O)[C@@H](N)Cc1ccc(O)cc1)[C@@H](C)O)C(C)C)C(C)C)C(C)C)C(C)C)C(C)C)C(=O)N[C@@H](CCCNC(=N)N)C(=O)N[C@@H](CCCNC(=N)N)C(=O)N[C@@H](Cc1c[nH]c2ccccc12)C(=O)N[C@@H](CC(N)=O)C(=O)N[C@@H](CC(C)C)C(=O)NCC(=O)O [NCR094] (H-YLKCKTVHDCPKSQVVYRCVGNYCRAVKIRRWNLG-OH; N-terminus and C-terminus assumed) | 15.41 | minimum inhibitory concentration (MIC) (K. pneumoniae ATCC700603 [1]; ATCC700603): 12.5 µM (≈ 52 µg/mL); minimum bactericidal / killing concentration (MBC), complete killing (K. pneumoniae ATCC700603 [1]; ATCC700603, 18 h): 25 µM |
| CC[C@H](C)[C@H](NC(=O)[C@H](CCSC)NC(=O)CNC(=O)[C@H](Cc1ccccc1)NC(=O)[C@H](CCC(=O)O)NC(=O)[C@H](CS)NC(=O)[C@@H](N)CCSC)C(=O)N[C@@H](CCCNC(=N)N)C(=O)N[C@@H](CCCNC(=N)N)C(=O)N[C@@H](CS)C(=O)O [NCR992.1] (H-MCEFGMIRRC-OH; N-terminus and C-terminus assumed) | 63.67 |  |
| CC[C@H](C)[C@H](N)C(=O)N[C@@H](CO)C(=O)N[C@@H](Cc1ccc(O)cc1)C(=O)N[C@@H](CCCCN)C(=O)N[C@@H](CS)C(=O)N[C@@H](CCC(N)=O)C(=O)N[C@@H](CS)C(=O)N[C@@H](Cc1c[nH]cn1)C(=O)N[C@@H](CCC(=O)O)C(=O)N[C@@H](C)C(=O)N[C@@H](Cc1ccc(O)cc1)C(=O)O [NCR992.2] (H-ISYKCQCHEAY-OH; N-terminus and C-terminus assumed) | 66.77 |  |
| MCWPSFKPRCSNGWCVCDKIMP [NCR888, wild-type nodule-specific cysteine-rich peptide of Medicago truncatula, 22 residues, chemically synthesized] |  | inhibition or killing of K. pneumoniae (in words) (K. pneumoniae ATCC700603 [1]; tested 50, 25, 12.5, 6.25, 3.125 µM, post-18 hrs of treatment): did not inhibit or kill; inhibition or killing of MRSA (in words) (MRSA ATCC29213): did not inhibit or kill |
| MSEFGMIRRSISYKSQSHEAY [NCR992.3] | 93.34 |  |
| YLKSKTVHDSPKSQVVYRSVGNYCRAVKIRRWNLG [NCR094.3] | 0.69 | Killing% of K. pneumoniae ex vivo (K. pneumoniae ATCC700603 [2]): relatively similar killing activity |
